Test systems include A498; A549; COLO 205; HCT-15; HL-60; HOP-62; HOP-92; KM12; LOX IMVI; MDA-MB-231; MDA-MB-435; Malme-3M; NCI-H226; NCI-H460; NCI/ADR-RES; RPMI-8226; SF-295; SN12C; TK-10.
Common to all, as to experiment: DTP human tumour cell line panel, 48 h

The values that follow come from ChEMBL document CHEMBL1201862, “PubChem BioAssay data set” (2004).

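All cell lines were grown in 96-well plates and treated with compound for 48 hours. GI50 = concentration required for 50% inhibition of growth.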 Calls of active or inactive are those of the source. Rule as the data show it: active = GI50 up to about 1.1 µM and inactive = higher.

For `COc1ccc(C2c3c(-c4ccccc4)nn(-c4ccccc4)c3Oc3ncn(N)c(=N)c32)cc1OC` (stereo not drawn), the GI50 is 7.16 µM (inactive) with A498; 2.24 µM (inactive) in the assay with A549; 2.23 µM (inactive) in the assay on COLO 205; 1.84 µM in the assay on HCT-15; 2.62 µM (inactive) in the assay on HL-60; 1.77 µM (inactive) in the assay on HOP-62. Besides, the GI50 in the assay on HOP-92 was 2.33 µM (inactive); in the assay on KM12, 1.83 µM (inactive); in the assay with LOX IMVI, 1.69 µM (inactive); with MDA-MB-231 it was 1.71 µM (inactive); in the assay on MDA-MB-435, 1.85 µM (inactive); in the assay on Malme-3M, 1.6 µM (inactive). The GI50 in the assay with NCI-H226 was 2.46 µM (inactive); with NCI-H460, 1.71 µM (inactive); in the assay on NCI/ADR-RES, 2.21 µM (inactive); in the assay with RPMI-8226, 2.73 µM (inactive); with SF-295, 2.05 µM (inactive); in the assay with SN12C, 2.51 µM (inactive). Besides, the GI50 in the assay with TK-10 was 1.95 µM (inactive).
As to `CN(CCCNC(=O)c1nn(C)c2c1Cc1ccccc1-2)CCCNC(=O)c1nn(C)c2c1Cc1ccccc1-2`, the GI50 in the assay on A498 was 17 µM (inactive); in the assay with A549, 16.5 µM (inactive); in the assay on COLO 205, 13.7 µM (inactive); in the assay with HCT-15, 17.7 µM; in the assay with HL-60 it was 5.28 µM (inactive); in the assay with HOP-62, 10.8 µM (inactive). In addition, the GI50 was 15.6 µM (inactive) with HOP-92; 16.2 µM (inactive) in the assay on KM12; 2.49 µM (inactive) in the assay on LOX IMVI; 19.3 µM (inactive) with MDA-MB-231; 10.8 µM (inactive) with MDA-MB-435; 20.5 µM (inactive) in the assay with Malme-3M. Further, the GI50 with NCI-H460 is 18 µM (inactive); in the assay with NCI/ADR-RES, 24.4 µM (inactive); with RPMI-8226, 13.3 µM (inactive); with SF-295 it was 18.2 µM (inactive); with SN12C, 16.5 µM (inactive); in the assay with TK-10, 19.1 µM (inactive).
As for `CCC1(O)C(=O)OCc2c1cc1n(c2=O)Cc2cc3ccccc3nc2-1` (stereo not drawn), the GI50 in the assay on A498 was 0.94 µM (active); with A549, 0.0221 µM (active); in the assay with COLO 205, 0.101 µM (active); with HCT-15, 0.239 µM; with HL-60, 0.017 µM (active); with HOP-62 it was < 0.0149 µM (active). Besides, the GI50 in the assay with HOP-92 is 0.12 µM (active); with KM12, 0.221 µM (active); in the assay on LOX IMVI it was < 0.0152 µM (active); with MDA-MB-231, 0.857 µM (active); in the assay with MDA-MB-435, 0.139 µM (active); with Malme-3M it was 0.431 µM (active). Besides, the GI50 in the assay with NCI-H226 is 0.277 µM (active); in the assay with NCI-H460, < 0.0403 µM (active); in the assay with NCI/ADR-RES, 0.0444 µM (active); with RPMI-8226, 0.048 µM (active); with SF-295, < 0.01 µM (active); with SN12C, 0.0703 µM (active). For the same compound, in the assay with TK-10, the GI50 is 6.73 µM (inactive).
With `CCOC(=O)C1=C(C)NC(C)=C(C(=O)OCC)C1c1ccc(Cl)cc1`, the GI50 in the assay on A498 is 16.4 µM (inactive); with A549 it was 15.4 µM (inactive); in the assay on COLO 205, 16.3 µM (inactive); in the assay on HCT-15 it was 16.6 µM; with HL-60 it was 0.774 µM (active); with HOP-62, 14.8 µM (inactive). Also, the GI50 is 10.3 µM (inactive) with HOP-92; 17.5 µM (inactive) in the assay with KM12; 16.8 µM (inactive) in the assay with LOX IMVI; 15.3 µM (inactive) in the assay on MDA-MB-231; 14.4 µM (inactive) with MDA-MB-435; 18.1 µM (inactive) in the assay with Malme-3M. For the same compound, the GI50 is 4.6 µM (inactive) in the assay with NCI-H460; 17.7 µM (inactive) in the assay on NCI/ADR-RES; 9.48 µM (inactive) with RPMI-8226; 12.7 µM (inactive) in the assay with SF-295; 19.4 µM (inactive) in the assay on SN12C; 14.8 µM (inactive) in the assay on TK-10.
For `CC1C[C@]2(C)C(=O)Nc3ccccc3[C@@H]2Nc2ccccc21` (stereo partly drawn), the GI50 in the assay on A498 is 20.5 µM (inactive); with A549, 25.1 µM (inactive); in the assay with COLO 205 it was 18.1 µM (inactive); with HCT-15, 34.7 µM; with HL-60, 36.4 µM (inactive); in the assay with HOP-62 it was 23.7 µM (inactive). For the same compound, the GI50 was 1.95 µM (inactive) in the assay on HOP-92; 17.9 µM (inactive) with KM12; 16.3 µM (inactive) with LOX IMVI; 16.3 µM (inactive) with MDA-MB-231; 24 µM (inactive) in the assay on MDA-MB-435; 23.3 µM (inactive) in the assay on Malme-3M. The GI50 was 26.1 µM (inactive) in the assay with NCI-H226; 28.1 µM (inactive) with NCI-H460; 19.8 µM (inactive) with NCI/ADR-RES; 23.5 µM (inactive) in the assay on RPMI-8226; 31.6 µM (inactive) in the assay with SF-295; 19.5 µM (inactive) in the assay on SN12C. Also, the GI50 with TK-10 is 21.2 µM (inactive).
`CSc1cnc2ccccc2c1SC1CN(Cc2ccccc2)c2ccccc2C1=O` (stereo not drawn): the GI50 in the assay on A498 was > 100 µM (inactive); in the assay with A549, > 100 µM (inactive); in the assay on COLO 205 it was > 100 µM (inactive); with HCT-15, over 100 µM; in the assay with HL-60, 35 µM (inactive); with HOP-62 it was 32.1 µM (inactive). Also, the GI50 in the assay on HOP-92, in the assay with KM12, in the assay on LOX IMVI, in the assay on MDA-MB-231, with MDA-MB-435 and with Malme-3M was > 100 µM (inactive) throughout. Moreover, the GI50 in the assay on NCI-H226, with NCI-H460, with NCI/ADR-RES, in the assay with RPMI-8226, with SF-295 and in the assay with SN12C was > 100 µM (inactive) each time. The GI50 in the assay with TK-10 was > 100 µM (inactive).
As to `CC(C)C[C@H](NC(=O)[C@H](Cc1cccc2ccccc12)NC(=O)N1CCOCC1)B(O)O`, the GI50 was < 0.01 µM (active) in the assay on A498; < 0.0107 µM (active) with A549; 0.0122 µM (active) in the assay on COLO 205; under 0.0202 µM in the assay on HCT-15; < 0.01 µM (active) with HL-60; < 0.01 µM (active) in the assay on HOP-62. Moreover, the GI50 in the assay on HOP-92, in the assay on KM12, in the assay with LOX IMVI, with MDA-MB-231, in the assay with MDA-MB-435 and with Malme-3M was < 0.01 µM (active) in each case. Further, the GI50 is 0.000104 µM (active) in the assay with NCI-H226; < 0.012 µM (active) with NCI-H460; 0.149 µM (active) in the assay with NCI/ADR-RES; < 0.01 µM (active) with RPMI-8226; 0.00348 µM (active) in the assay with SF-295; < 0.01 µM (active) in the assay with SN12C. Moreover, the GI50 with TK-10 was < 0.01 µM (active).
Consider `N#CCCN(CCN(C(=O)Nc1ccccc1)c1ccccc1)C(=O)Nc1ccccc1`, for which the GI50 in the assay on A498 is > 100 µM (inactive); with A549, 58.2 µM (inactive); with COLO 205 it was 53.5 µM (inactive); in the assay on HCT-15, over 81.5 µM; in the assay with HL-60, 13 µM (inactive); in the assay on HOP-62, > 100 µM (inactive). The GI50 in the assay with HOP-92 was > 63 µM (inactive); with KM12 it was 48.3 µM (inactive); in the assay with LOX IMVI, 49.8 µM (inactive); in the assay with MDA-MB-231, > 100 µM (inactive); with MDA-MB-435, 63.8 µM (inactive); in the assay on Malme-3M, > 100 µM (inactive). For the same compound, the GI50 in the assay on NCI-H226 was 79.4 µM (inactive); with NCI-H460 it was > 67.5 µM (inactive); in the assay with NCI/ADR-RES, 28.6 µM (inactive); with RPMI-8226 it was 17.6 µM (inactive); in the assay with SF-295, 62.5 µM (inactive); with TK-10, 61.8 µM (inactive).
Consider `CCc1nc(N)nc(N)c1-c1ccc(Cl)c(/N=C/N(C)C)c1`, for which the GI50 in the assay on A498 was 86.9 µM (inactive); in the assay on A549, 15.3 µM (inactive); with COLO 205 it was 65 µM (inactive); in the assay with HCT-15, 10.4 µM; in the assay with HL-60 it was > 39.7 µM (inactive); in the assay on HOP-62 it was 63.7 µM (inactive). In addition, the GI50 is > 90.4 µM (inactive) in the assay with HOP-92; 61.7 µM (inactive) with KM12; 19.2 µM (inactive) with LOX IMVI; 81.3 µM (inactive) in the assay on MDA-MB-231; 45.9 µM (inactive) in the assay on MDA-MB-435; > 100 µM (inactive) in the assay with NCI-H226. The GI50 is 5.22 µM (inactive) in the assay on NCI-H460; > 93.1 µM (inactive) in the assay with NCI/ADR-RES; 54.3 µM (inactive) with RPMI-8226; 41.1 µM (inactive) with SF-295; 91.4 µM (inactive) with SN12C; > 100 µM (inactive) with TK-10.
For the compound `COc1c(Cl)ccc(Cl)c1C(=O)NNC(=O)c1c(Cl)c(Cl)c(Cl)c(Cl)c1-c1nc2cc(C(=O)c3ccccc3)ccc2[nH]1`, the GI50 in the assay on A498 was 61.2 µM (inactive); with A549, 56 µM (inactive); with COLO 205, 47.4 µM (inactive); in the assay with HCT-15 it was 35 µM; with HL-60 it was 50.5 µM (inactive); in the assay with HOP-62, 82 µM (inactive). Also, the GI50 was 52.6 µM (inactive) in the assay on HOP-92; 80.5 µM (inactive) in the assay with KM12; 55.1 µM (inactive) in the assay with LOX IMVI; 37.6 µM (inactive) in the assay with MDA-MB-231; 42.9 µM (inactive) in the assay on MDA-MB-435; 54.3 µM (inactive) in the assay with Malme-3M. Further, the GI50 with NCI-H226 was 45.6 µM (inactive); in the assay on NCI/ADR-RES, > 100 µM (inactive); in the assay on RPMI-8226, 24.2 µM (inactive); with SF-295, 34.9 µM (inactive); with SN12C, 70.8 µM (inactive); in the assay with TK-10, 72.3 µM (inactive).
Regarding `c1ccc2c(c1)[n-]n1c3ccc4nonc4c3n[n+]21`, the GI50 with A498 was > 100 µM (inactive); with A549, > 100 µM (inactive); with COLO 205, > 100 µM (inactive); in the assay on HCT-15, over 100 µM; with HL-60, > 100 µM (inactive); in the assay on HOP-62, 84.5 µM (inactive). The GI50 in the assay with HOP-92, with KM12, in the assay with LOX IMVI, with MDA-MB-231, in the assay with MDA-MB-435 and in the assay with Malme-3M was > 100 µM (inactive) each time. The GI50 with NCI-H226 was > 100 µM (inactive); in the assay with NCI-H460 it was 93.3 µM (inactive); with NCI/ADR-RES, > 100 µM (inactive); in the assay on RPMI-8226, > 100 µM (inactive); with SF-295, > 100 µM (inactive); in the assay on SN12C, > 100 µM (inactive).
